Counter-ions that a name gives are not always drawn. Like-named read-outs stand apart in the source and are kept apart here.
Experiments:
S1R [1] = target: T1, S1R (Cavia porcellus, UniProt Q60492); assay: S1R binding affinity of previously published compounds; settings: ln of experimental Ki S1R (nM), Table 1
Text: Table 1 Glide Gscores, calculated Ligand Efficiencies and experimentally determined Ki values of compounds 1–8 employed for the elaboration of the docking model. | column: ln(Ki)

HeLa cells = assay: Osmotic water permeability (AQP-mediated), stopped-flow light scattering; type: cell-based
Method: Prompted by these encouraging results, we decided to draw the antioxidant profile of compound 12, since it is well-known that oxidative stress is connected with insurgence and exacerbation of neurodegenerative diseases. In particular, the AQP-mediated antioxidant properties of RC-33 (i.e., 1-[3-(1,1′-biphen)-4-yl]butylpiperidine, our in-house developed selective S1R agonist) and 12 were evaluated in HeLa cells, following the procedures reported in our most recent studies. Briefly, osmotic water permeability was measured by a stopped-flow light scattering method and expressed as percentage of k relative. Compounds RC-33 and 12 were tested at 20 µM whereas curcumin was used as control of the goodness of the cellular assay, since its capability to affect the AQPs permeability was assessed in our previous work. The compounds were initially assessed on non-stressed HeLa cells to evaluate the capability of the compounds to affect the AQPs permeability in absence of an oxidant stimuli. […] Conversely, curcumin directly affect AQPs resulting in a significative permeability reduction (75% of k relative). RC-33, 12 and curcumin were further assessed under oxidative stress conditions induced by heating the cell cultures. […] Thus, to probe the entanglement between S1R, AQP permeability and antioxidant protection, compound 12 was assessed against stressed HeLa cells in presence of NE-100, a well-known and fully characterized S1R antagonist.
Osmotic water permeability was measured in HeLa cells suspension by the stopped-flow light scattering method as previously described.
The antioxidant effect of compound 12 on water permeability HeLa cells were divided into different groups: (1) Controls, cells incubated at room temperature (21 °C); (2) heat-stressed cells, cells subjected to heat-treatment by incubating them in a water thermostatic and shacking bath at 42 °C for 3 h; (3) heat-stressed cells pre-treated, cells heat-stressed in the presence of the compound 12 at 20 µM final concentration (dissolved in methanol). Moreover, to test the possible capacity of the molecules to affect the AQP gating in normal condition, HeLa cells were treated in the presence and in the absence of the compounds by incubating at 21 °C for 3 h.

S2R [2] = target: S2R; parameters: method as in PMID 30223122; settings: read-out: KiS2R; cited from earlier work
S1R [3] = target: T1, S1R; parameters: method as in PMID 30223122; settings: read-out: KiS1R; cited from earlier work
S1R [4] = target: T1, S1R; assay: S1R radioligand binding assay ([3H](+)-pentazocine, guinea pig brain cortex membranes); parameters: The thawed membrane preparation of guinea pig brain cortex; from tissue; host or cells: guinea pig brain (cerebral) cortex membranes
S2R [5] = target: T2, S2R (Rattus norvegicus, UniProt Q5U3Y7); assay: S2R radioligand binding assay ([3H]-DTG, rat liver membranes); settings: (+)-pentazocine to mask S1R
T2 construct: The assay was performed using 150 µg of rat liver homogenate; from tissue; host or cells: rat liver homogenate / membranes
T2 sequence (Q5U3Y7 1-176): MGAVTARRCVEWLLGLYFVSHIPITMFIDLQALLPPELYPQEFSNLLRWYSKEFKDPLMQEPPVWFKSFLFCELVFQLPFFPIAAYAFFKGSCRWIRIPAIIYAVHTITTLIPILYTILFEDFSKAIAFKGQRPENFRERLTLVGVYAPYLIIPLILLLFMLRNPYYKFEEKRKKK

[6] = target: T3, GluN2 subunit of NMDA (GluN1a and GluN2B subunits) (Homo sapiens, UniProt Q05586+Q13224); assay: GluN2 binding assay ([3H]-ifenprodil, membranes of transfected L(tk-) cells)
T3 construct: expressed in transfected cells; host or cells: L(tk-) cells, stably transfected

AChE = AChE (Electrophorus electricus, UniProt O42275); assay: Inhibition of AChE, modified Ellman's method; type: biochemical
Method: To test the potential to inhibit AChE, a spectrophotometric procedure was adopted, based on the well-known Ellman’s method. Firstly, the target compound was tested at a concentration of 50 μM and a 72% of inhibition was observed.
AChE inhibitory activity of compound 12 was determined by the modified Ellman’s method. Briefly, a stock solution of tested compound (5.0 mM) was prepared in DMSO and diluted using 0.1 M KH2PO4/K2HPO4 buffer (pH 8.0) to afford a final concentration range between […]. Enzyme solutions were prepared by dissolving lyophilized powder in double-distilled water. […] The reaction was started by addition of […] of the 0.075 M substrate solution (acetylthiocholine iodide) and exactly 2 min after substrate addition, the absorption was measured at 25 °C at 412 nm. In enzyme-free assay systems the non-enzymatic hydrolysis of acetylthiocholine iodide was measured, and the results were employed as blank. […] Each experiment was performed in triplicate, and the mean ± standard deviation was calculated. Data from concentration-inhibition experiments of the inhibitors were calculated by nonlinear regression analysis, using the Excel program.

[7] = heat-stressed HeLa cells (42 °C 3 h), pre-treated at 20 µM
[8] = non-stressed HeLa cells, 21 °C 3 h, 20 µM
[9] = guinea pig cerebral cortex membranes, [3H]-(+)-pentazocine, read-out: Experimental Ki S1R (nM) ± SEM
[10] = ln of experimental Ki S1R (nM), read-out: Experimental Ki S1R (converted)
[11] = Experimental Ki S1R (nM) ± SEM, guinea pig cerebral cortex membranes, [3H]-(+)-pentazocine
[12] = Experimental ln(Ki), ln of experimental Ki S1R (nM)

T1 sequence (Q60492 whole entry): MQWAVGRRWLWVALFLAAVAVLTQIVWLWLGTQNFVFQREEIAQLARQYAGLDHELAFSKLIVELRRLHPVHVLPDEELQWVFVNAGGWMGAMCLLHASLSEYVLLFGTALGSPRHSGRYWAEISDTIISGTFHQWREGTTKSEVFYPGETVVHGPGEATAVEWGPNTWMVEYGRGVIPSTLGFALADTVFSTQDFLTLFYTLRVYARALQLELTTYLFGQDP
AChE, sequence (O42275 24-633): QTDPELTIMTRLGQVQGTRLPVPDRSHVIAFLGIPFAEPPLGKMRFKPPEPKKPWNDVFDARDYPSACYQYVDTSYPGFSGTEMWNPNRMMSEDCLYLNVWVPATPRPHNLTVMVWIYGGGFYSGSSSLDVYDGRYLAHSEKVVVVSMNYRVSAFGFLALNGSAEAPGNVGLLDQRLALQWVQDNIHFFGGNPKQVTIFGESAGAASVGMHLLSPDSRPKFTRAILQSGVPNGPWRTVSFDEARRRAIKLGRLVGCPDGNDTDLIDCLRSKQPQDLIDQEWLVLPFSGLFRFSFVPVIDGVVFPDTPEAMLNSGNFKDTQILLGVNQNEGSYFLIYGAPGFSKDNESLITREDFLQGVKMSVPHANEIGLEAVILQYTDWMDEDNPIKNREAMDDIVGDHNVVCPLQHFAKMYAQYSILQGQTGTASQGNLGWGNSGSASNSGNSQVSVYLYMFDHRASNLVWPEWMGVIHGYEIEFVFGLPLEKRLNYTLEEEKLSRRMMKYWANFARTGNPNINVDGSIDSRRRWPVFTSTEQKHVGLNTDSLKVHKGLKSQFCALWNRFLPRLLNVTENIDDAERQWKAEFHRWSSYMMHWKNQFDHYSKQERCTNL
T3 sequence (Q13224 27-1484, other chains not shown): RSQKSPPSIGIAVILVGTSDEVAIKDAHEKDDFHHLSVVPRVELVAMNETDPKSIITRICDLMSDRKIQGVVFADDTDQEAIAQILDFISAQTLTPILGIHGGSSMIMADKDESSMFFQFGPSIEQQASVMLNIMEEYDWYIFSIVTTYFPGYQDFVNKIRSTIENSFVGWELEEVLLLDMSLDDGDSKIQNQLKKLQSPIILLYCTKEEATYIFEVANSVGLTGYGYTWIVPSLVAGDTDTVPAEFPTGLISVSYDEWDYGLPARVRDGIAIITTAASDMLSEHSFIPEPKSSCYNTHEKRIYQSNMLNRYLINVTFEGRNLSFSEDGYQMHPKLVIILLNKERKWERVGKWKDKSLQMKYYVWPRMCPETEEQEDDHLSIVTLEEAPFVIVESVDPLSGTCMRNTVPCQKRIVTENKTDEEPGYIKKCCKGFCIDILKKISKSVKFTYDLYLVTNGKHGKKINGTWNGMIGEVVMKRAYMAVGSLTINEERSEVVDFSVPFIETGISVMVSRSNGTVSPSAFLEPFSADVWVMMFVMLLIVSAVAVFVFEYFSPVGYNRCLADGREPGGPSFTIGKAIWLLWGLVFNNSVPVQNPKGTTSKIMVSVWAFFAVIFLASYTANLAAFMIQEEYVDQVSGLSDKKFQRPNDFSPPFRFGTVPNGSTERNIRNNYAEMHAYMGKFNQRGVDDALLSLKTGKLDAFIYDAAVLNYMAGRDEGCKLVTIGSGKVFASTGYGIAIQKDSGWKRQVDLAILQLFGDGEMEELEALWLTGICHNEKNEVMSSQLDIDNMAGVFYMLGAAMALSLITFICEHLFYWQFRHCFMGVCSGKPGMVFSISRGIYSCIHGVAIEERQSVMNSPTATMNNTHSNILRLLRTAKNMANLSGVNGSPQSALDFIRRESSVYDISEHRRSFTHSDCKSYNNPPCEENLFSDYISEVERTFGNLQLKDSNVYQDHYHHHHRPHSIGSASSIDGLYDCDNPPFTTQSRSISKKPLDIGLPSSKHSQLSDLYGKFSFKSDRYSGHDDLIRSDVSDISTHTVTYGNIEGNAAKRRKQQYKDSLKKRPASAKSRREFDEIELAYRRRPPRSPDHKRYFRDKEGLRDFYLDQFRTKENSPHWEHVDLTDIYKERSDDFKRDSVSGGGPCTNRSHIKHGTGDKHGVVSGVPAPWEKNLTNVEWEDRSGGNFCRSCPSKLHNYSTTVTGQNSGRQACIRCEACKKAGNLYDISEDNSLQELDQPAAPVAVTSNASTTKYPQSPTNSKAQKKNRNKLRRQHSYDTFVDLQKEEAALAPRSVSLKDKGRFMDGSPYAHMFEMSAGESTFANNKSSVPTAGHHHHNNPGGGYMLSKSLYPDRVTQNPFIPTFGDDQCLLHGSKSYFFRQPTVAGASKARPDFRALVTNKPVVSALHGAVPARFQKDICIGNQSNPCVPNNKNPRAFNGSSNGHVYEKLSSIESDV

With `O=C(CN1CCCCC1)c1ccc(-c2ccccc2)cc1` (as salt: hydrochloride) [Compound 8, 1-(2-([1,1’-biphenyl]-4-yl)-2-oxoethyl)piperidin-1-ium hydrochloride] the melting point was 236 to 238 °C.
With `O=C(CCCN1CCCCC1)c1ccc(OCc2ccccc2)cc1` (as salt: hydrochloride) [Compound 13, 1-(4-(4-(benzyloxy)phenyl)-4-oxobutyl)piperidin-1-ium hydrochloride] the melting point was 188 to 190 °C.
With `O=C(CCN1CCOCC1)c1ccc(-c2ccccc2)cc1` [Compound 4] the “ln(Ki)” value (S1R [1]) was 1.065.
For `O=C(CCN1CCCCC1)c1ccc(-c2ccccc2)cc1` [Compound 2], the “ln(Ki)” value (S1R [1]) was 2.708.
For `CC(CCN1CCCCC1)c1ccc(-c2ccccc2)cc1` (stereo not shown) [RC-33, 1-[3-(1,1′-biphen)-4-yl]butylpiperidine], the “osmotic water permeability, percent of k relative” value (HeLa cells; [7]) is listed as “able to prevent the water permeability reduction”, the “osmotic water permeability, percent of k relative” value (HeLa cells; [8]) is listed as “comparable” and the Ki (S2R [2]) is listed as 45 ± 16 nM. The Ki (S1R [3]) was 1.8 ± 0.1 nM.
With `O=C(CN1CCC(Cc2ccccc2)CC1)c1ccc2ccccc2c1` [Compound 1] the “ln(Ki)” value (S1R [1]) was 3.296.
`O=C(CCCN1CCCCC1)c1ccc(OCc2ccccc2)cc1` [Compound 13, 1-(4-(4-(benzyloxy)phenyl)-4-oxobutyl)piperidin-1-ium hydrochloride] showed a Ki (S1R [4]; [9]) of 87 ± 28 nM and a Ki (S1R [4]; [10]) of 87 nM.
For `O=C(CN1CCCCC1)c1ccc(OCc2ccccc2)cc1` [Compound 9, 1-(2-(4-(benzyloxy)phenyl)-2-oxoethyl)piperidin-1-ium hydrochloride], the Ki (S1R [4]; [11]) was 48 ± 12 nM and the Ki (S1R [4]; [12]) was 48 nM.
With `CCCN(CCC)CCc1ccc(OC)c(OCCc2ccccc2)c1` [NE-100] the “osmotic water permeability, percent of k relative” value (HeLa cells; [7]) was 78 % of k relative.
For `O=C(CN1CCC(Cc2ccccc2)CC1)c1ccc(-c2ccccc2)cc1` [Compound 6], the “ln(Ki)” value (S1R [1]) was 5.829.
With `O=C(CCCN1CCCCC1)c1ccc2ccccc2c1` [Compound 11, 1-(4-(naphthalen-2-yl)-4-oxobutyl)piperidin-1-ium hydrochloride] the Ki (S1R [4]; [9]) was 4.4 ± 2.4 nM, the Ki (S1R [4]; [10]) was 4.4 nM and the Ki (S2R [5]) was 50 nM.
For `O=C(CCCN1CCCCC1)c1ccc(-c2ccccc2)cc1` [Compound 12, 1-(4-([1,1’-biphenyl]-4-yl)-4-oxobutyl)piperidin-1-ium hydrochloride], the “osmotic water permeability, percent of k relative” value (HeLa cells; [7]) was “able to prevent the water permeability reduction”, the “osmotic water permeability, percent of k relative” value (HeLa cells; [8]) was “did not affect the water permeability” and the Ki (S1R [4]; [11]) was 33 ± 14 nM. It also gave a Ki (S1R [4]; [12]) of 33 nM, a Ki [6] of 200 nM and an inhibition at 50 µM (AChE; 50 μM) of 72%. It also gave an IC50 (AChE; Ellman's method) of 680 ± 90 nM.
Work on `O=C(CN1CCCCC1)c1ccc(-c2ccccc2)cc1` [Compound 8, 1-(2-([1,1’-biphenyl]-4-yl)-2-oxoethyl)piperidin-1-ium hydrochloride] yielded a Ki (S1R [4]; [9]) of 132 ± 55 nM and a Ki (S1R [4]; [10]) of 132 nM.
For `O=C(CCN1CCCCC1)c1ccc2ccccc2c1` [Compound 3], the “ln(Ki)” value (S1R [1]) was 0.788.
For `O=C(CCN1CCCCC1)c1ccc(OCc2ccccc2)cc1` [Compound 10, 1-(3-(4-(benzyloxy)phenyl)-3-oxopropyl)piperidin-1-ium hydrochloride], the Ki (S1R [4]; [9]) was 25 ± 7 nM and the Ki (S1R [4]; [10]) was 25 nM.
In the case of `O=C(CCN1CCOCC1)c1ccc2ccccc2c1` [Compound 5], the “ln(Ki)” value (S1R [1]) is reported as 2.197.
`O=C(CN1CCCCC1)c1ccc(OCc2ccccc2)cc1` (as salt: hydrochloride) [Compound 9, 1-(2-(4-(benzyloxy)phenyl)-2-oxoethyl)piperidin-1-ium hydrochloride] gave a melting point of 86 to 88 °C.
In the case of `COc1cc(/C=C/C(=O)CC(=O)/C=C/c2ccc(O)c(OC)c2)ccc1O` [curcumin], the “osmotic water permeability, percent of k relative” value (HeLa cells; [7]) is reported as “not able to protect the AQPs’ permeability properties” and the “osmotic water permeability, percent of k relative” value (HeLa cells; [8]) is reported as 75 % of k relative.

Source: paper PMC7589021, “Setup and Validation of a Reliable Docking Protocol for the Development of Neuroprotective Agents by Targeting the Sigma-1 Receptor (S1R)” (International Journal of Molecular Sciences, 2020)
